In PMC12692036, “Multi-Target Screening of Anti-Diabetic and Antioxidant Potential Bioactive Constituents from Dandelion” (Foods, 2025):

Key:
[1] = FRAP iron ion reduction capacity; conditions: mean ± SD, n = 3
Description: This method had been slightly modified according to the literature. Firstly, 40 mmol·L^−1 HCl, 100 mmol·L^−1 FeSO4, 20 mmol·L^−1 FeCl3, 0.3 mol·L^−1 acetic acid sodium acetate buffer, and 10 mmol·L^−1 TPTZ were carefully prepared, respectively. Secondly, the TPTZ working solution was prepared by mixing 20 mmol·L^−1 FeCl3, 0.3 mol·L^−1 acetic acid sodium acetate buffer, and 10 mmol·L^−1 TPTZ in a volume ratio of 1:10:1. Thirdly, 100 μL of sample test solution and 190 μL TPTZ working solution were added to a 96-well microplate, shaken well, and reacted at room temperature for 10 min. Finally, the absorbance at 593 nm was measured by ReadMax1200 microplate reader. The positive control was Trolox and Vc, and the blank control was anhydrous ethanol, with each experiment conducted in triplicate. The FRAP assay results were quantified by extrapolating the absorbance values to the ferrous sulfate standard curve, with the antioxidant capacity expressed as millimolar ferrous ion equivalents per gram of dry sample weight (mmol Fe^2+·g^−1). The FRAP iron ion reduction capacities were also expressed as TEAC values, calculated according to Section 2.6.1.

[2] = target: T1, α-amylase (Sus scrofa, UniProt P00690); assay: α-Amylase inhibitory activity (DNS method); type: biochemical, porcine; conditions: mean ± SD, n = 3
T1 construct: purchased Adamas-beta Reagents Co., Ltd. (Shanghai, China); host or cells: porcine pancreas
T1 sequence (P00690 16-511): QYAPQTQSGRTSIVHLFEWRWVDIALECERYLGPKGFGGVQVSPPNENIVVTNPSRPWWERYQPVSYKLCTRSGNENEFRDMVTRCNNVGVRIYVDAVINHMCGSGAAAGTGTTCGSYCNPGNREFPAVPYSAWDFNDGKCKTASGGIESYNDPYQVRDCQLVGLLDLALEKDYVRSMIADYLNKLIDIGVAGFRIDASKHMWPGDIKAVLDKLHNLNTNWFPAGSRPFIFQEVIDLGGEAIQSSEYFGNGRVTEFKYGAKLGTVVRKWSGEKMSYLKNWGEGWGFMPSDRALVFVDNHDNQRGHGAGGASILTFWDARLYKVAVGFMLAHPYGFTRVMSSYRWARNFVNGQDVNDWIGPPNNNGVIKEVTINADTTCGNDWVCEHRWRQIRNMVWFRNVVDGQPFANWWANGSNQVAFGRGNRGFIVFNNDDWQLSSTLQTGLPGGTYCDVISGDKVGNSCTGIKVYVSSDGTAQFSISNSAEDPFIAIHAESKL
Description: α-Amylase inhibitory activity was examined based on a modified method described previously. Firstly, 200 µL of sample test solution and 100 µL of 1 U·mL^−1 α-amylase solution were transferred into 5 mL centrifuge tube, and incubated in a 37 °C constant temperature water bath for 10 min. Secondly, 200 µL of 1% starch solution was added and incubated in a 37 °C constant temperature water bath for 5 min. Thirdly, 500 µL of DNS reagent was prepared, added, immersed and reacted in boiling water for 5 min [7]. Subsequently, the reaction solution was removed from boiling water and cooled for 10 min. Finally, 200 µL of the reaction solution was transferred into a 96-well microplate, and measured its absorbance value at a wavelength of 540 nm by ReadMax1200 microplate reader. Each experiment was conducted in triplicate.

[3] = target: T1, α-amylase; assay: Affinity ultrafiltration MTAUF-UPLC-MS/MS of DE with α-amylase; type: binding, porcine; conditions: peak area with active / inactivated enzyme; DE 5.0 mg·mL^−1
Description: (§1) Based on hypoglycemic inhibitory activities, potential inhibitors in the DE extract were screened using the MTAUF-UPLC-MS/MS method, as previously described. Firstly, α-amylase or α-glucosidase enzymes were inactivated by heating in boiling water for 20 min. Secondly, 100 µL of DE sample (5.0 mg·mL^−1 in PBS, pH = 6.8), 20 µL of either 2 U·mL^−1 active or inactivated enzyme, and 190 µL PBS were mixed, shaken well, and incubated at 37 °C for 60 min. […] This step was repeated 3 times. […] This step was also repeated 3 times. The resulting solution was dried and reconstituted in 50 µL methanol for further UPLC-QTOF-MS/MS analysis.

[4] = target: α-glucosidase; assay: α-Glucosidase inhibitory activity (pNPG); type: biochemical, Saccharomyces cerevisiae; conditions: mean ± SD, n = 3
Description: α-Glucosidase inhibitory activity was examined based on a modified method described previously. […] Then, 40 μL of 5 mmol·L^−1 pNPG was added, and the reaction was for an additional 15 min. Finally, 80 μL of 1 mol·L^−1 sodium carbonate was added to terminate the reaction, and measured its absorbance value at a wavelength of 405 nm by ReadMax1200 microplate reader (Shanpu, Shanghai, China). Each experiment was conducted in triplicate. […] The IR was calculated according to Equation (1) in Section 2.5.1.

[5] = DPPH radical scavenging capacity; conditions: mean ± SD, n = 3
Description: This method had been slightly modified according to the literature. Firstly, 10 μL of sample test solution and 190 μL of 0.1 mmol·L^−1 DPPH working solution were added to a 96-well microplate, shaken well, and reacted in the dark for 30 min. The absorbance at 517 nm was measured by ReadMax1200 microplate reader. The positive control was Trolox and Vc, and the blank control was anhydrous ethanol, with each experiment conducted in triplicate. The standard curve was plotted to obtain the linear regression equation. […] The TEAC values were calculated from the standard curve of Trolox and expressed as millimoles of Trolox equivalents per gram of sample (mmol TE/g).

[6] = ABTS radical scavenging capacity; conditions: mean ± SD, n = 3
Description: This method had been slightly modified according to the literature. Firstly, 1.32 mg·mL^−1 potassium persulfate and 3.84 mg·mL^−1 ABTS^+• were mixed in a volume ratio of 1:1 to obtain the ABTS^+• mother liquor. The ABTS^+• mother liquor was stored in a dark environment for 12–16 h, diluted with ethanol, and adjusted to an absorbance range of 0.695 ± 0.705 at 734 nm to obtain an ABTS^+• working solution. Secondly, 100 μL of sample test solution and 190 μL ABTS^+• working solution were added to a 96-well microplate, shaken well, and reacted in the dark for 30 min. Finally, the absorbance at 734 nm was measured by ReadMax1200 microplate reader. The positive control was Trolox and Vc, and the blank control was anhydrous ethanol, with each experiment conducted in triplicate. The ABTS radical scavenging capacities were also expressed as IC50 and TEAC values, calculating according to Section 2.6.1. The standard curve was plotted to obtain the linear regression equation. The ABTS RCR was calculated as follows: (3) ABTS RCR=AABTS−ASample/AABTS×100% where AABTS and ASample were the absorbance values of blank control and sample, respectively.

[7] = tested on: α-glucosidase; assay: Affinity ultrafiltration MTAUF-UPLC-MS/MS of DE with α-glucosidase; type: binding, Saccharomyces cerevisiae; conditions: peak area with active / inactivated enzyme; DE 5.0 mg·mL^−1
Description: as §1

Row | IC50 of α-amylase inhibitory activity [2] | relative binding affinity (RBA) toward α-amylase [3] | IC50 of α-glucosidase inhibitory activity [4] | DPPH radical scavenging capacity IC50 [5] | ABTS radical scavenging capacity IC50 [6] | relative binding affinity (RBA) toward α-glucosidase [7] | IC50 [2] | Structure (SMILES) | iron ion reducing capacity, equivalent concentration of ferrous ions (FRAP) [1]
1 |  | 1.83 ± 0.07 |  | 1.96 ± 0.05 µg/mL | 2.47 ± 0.05 µg/mL | less than 1 |  | O=c1cc(-c2ccc(O)c(O)c2)oc2cc(O)cc(O)c12 [Compound 7, luteolin] | 
2 |  |  |  | 4.23 ± 0.04 µg/mL | 2.12 ± 0.02 µg/mL |  |  | O=c1c(O)c(-c2ccc(O)c(O)c2)oc2cc(O)cc(O)c12 [Compound 8, quercetin] | 56.40 ± 1.81 mmol Fe^2+·g^−1
3 |  | 1.48 ± 0.03 | 35.99 ± 0.42 µg/mL |  |  | 1.54 ± 0.03 |  | O=c1cc(-c2ccc(O)cc2)oc2cc(O)cc(O)c12 [Compound 14, apigenin] | 
4 |  |  |  | 5.18 ± 0.02 µg/mL | 3.93 ± 0.04 µg/mL |  | 99.5 µM | O=c1c(O)c(-c2ccc(O)cc2)oc2cc(O)cc(O)c12 [Compound 15, kaempferol] | 57.56 ± 1.33 mmol Fe^2+·g^−1
5 |  | 1.66 ± 0.08 |  |  |  | 1.64 ± 0.05 |  | O=c1cc(-c2ccccc2)oc2cc(O)cc(O)c12 [Compound 24, chrysin] | 
6 |  | 1.53 ± 0.06 |  |  |  | 1.11 ± 0.03 |  | O=C1C[C@@H](c2ccccc2)Oc2cc(O)cc(O)c21 [Compound 25, pinocembrin] | 
7 |  | 2.13 ± 0.07 |  |  |  | 2.09 ± 0.06 |  | COc1cc(O)c2c(=O)cc(-c3ccc(O)cc3)oc2c1 [Compound 27, genkwanin] | 

Further lines, the molecule ahead of its results:

Row | Structure (SMILES) | IC50 of α-amylase inhibitory activity [2] | relative binding affinity (RBA) toward α-amylase [3] | IC50 of α-glucosidase inhibitory activity [4] | DPPH radical scavenging capacity IC50 [5] | ABTS radical scavenging capacity IC50 [6] | relative binding affinity (RBA) toward α-glucosidase [7] | IC50 [2] | iron ion reducing capacity, equivalent concentration of ferrous ions (FRAP) [1]
8 | O=C(/C=C/c1ccc(O)c(O)c1)O[C@H]1[C@H](O)C[C@](O)(C(=O)O)C[C@H]1OC(=O)/C=C/c1ccc(O)c(O)c1 [Compound 2, isochlorogenic acid C] | 254.00 ± 0.78 µg/mL | 1.71 ± 0.07 | 84.84 ± 4.31 µg/mL | 5.55 ± 0.02 µg/mL | 3.01 ± 0.03 µg/mL | less than 1 |  | 107.35 ± 3.42 mmol Fe^2+·g^−1
9 | O=C(O)c1ccc(O)cc1 [Compound 3, 4-hydroxybenzoic acid] |  | less than 1 |  |  |  | 2.47 ± 0.07 |  | 
10 | COc1cc(/C=C/C(=O)O)ccc1O [Compound 5, ferulic acid] |  | 1.08 ± 0.05 |  | 6.11 ± 0.06 µg/mL | 1.20 ± 0.00 µg/mL | 1.35 ± 0.05 |  | 
11 | COc1ccc(C=CC(=O)O)cc1OC [Compound 6, 3,4-dimethoxy cinnamic acid] |  | 1.05 ± 0.02 |  |  |  | less than 1 |  | 
12 | O=c1c(-c2ccc(O)cc2)coc2cc(O)cc(O)c12 [Compound 13, genistein] |  | 1.15 ± 0.09 |  |  | 18.26 ± 0.52 µg/mL | 1.60 ± 0.03 |  | 
13 | COc1cc(-c2cc(=O)c3c(O)cc(O)cc3o2)cc(OC)c1O[C@H](CO)[C@@H](O)c1ccc(O)cc1 [Compound 17, calquiquelignan D] |  | less than 1 |  |  |  |  |  | 
14 | COc1cc(-c2cc(=O)c3c(O)cc(O)cc3o2)cc(OC)c1O [Compound 18, tricin] |  | less than 1 |  |  |  |  |  | 
15 | C=C1CC[C@]2(C)CC[C@]3(C)[C@H](CC[C@@H]4[C@@]5(C)CC[C@H](O)C(C)(C)[C@@H]5CC[C@]43C)[C@H]2[C@@H]1C [Compound 48, taraxasterol] |  | less than 1 |  |  |  | 1.46 ± 0.09 |  | 
